According to the supplement of paper PMC10307832:

Tests used:
Assay in all cases: relative viability (nuclei count vs DMSO), 5 days (fraction); higher = more cells survive
NCI-H358 = tested on: NCI-H358
Method in brief: (§1)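 Relative viability was taken as the ratio of nuclei in treated wells to nuclei in vehicle wells. Lung cancer cell lines in 1536-well plates received compounds by pin tool one day after seeding, either one drug alone or a fixed anchor-drug dose plus five library-drug doses (not always all listed) in √10 steps. Nuclei were counted on 4× images after 5 days of treatment, and values are medians of duplicate plates.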

NCI-H838 = tested on: NCI-H838
Method in brief: as §1

COR-L23 = tested on: COR-L23
Method in brief: as §1

NCI-H2126 = tested on: NCI-H2126
Method in brief: as §1

LC-2-ad = tested on: LC-2-ad
Method in brief: as §1

NCI-H1793 = tested on: NCI-H1793
Method in brief: as §1

HARA = tested on: HARA
Method in brief: as §1

NCI-H1993 = tested on: NCI-H1993
Method in brief: as §1

NCI-H1395 = tested on: NCI-H1395
Method in brief: as §1

SK-LU-1 = tested on: SK-LU-1
Method in brief: as §1

HCC-15 = tested on: HCC-15
Method in brief: as §1

NCI-H1944 = tested on: NCI-H1944
Method in brief: as §1

NCI-H2228 = tested on: NCI-H2228
Method in brief: as §1

NCI-H23 = tested on: NCI-H23
Method in brief: as §1

NCI-H2023 = tested on: NCI-H2023
Method in brief: as §1

ABC-1 = tested on: ABC-1
Method in brief: as §1

HCC-366 = tested on: HCC-366
Method in brief: as §1

NCI-H2405 = tested on: NCI-H2405
Method in brief: as §1

HOP-62 = tested on: HOP-62
Method in brief: as §1

HCC-78 = tested on: HCC-78
Method in brief: as §1

EMC-BAC-2 = tested on: EMC-BAC-2
Method in brief: as §1

Compound Nc1ccn([C@@H]2O[C@H](CO)[C@@H](O)[C@@H]2O)c(=O)n1 [Cytarabine] + C[C@]1(O)C[C@@H](c2nc(-c3ccc4ccc(-c5ccccc5)nc4c3)c3c(N)nccn32)C1 [Linsitinib] (partner 1 µM) has a relative viability (NCI-H358; first compound 0.005 µM) of 0.571, a relative viability (NCI-H358; first compound 0.01581 µM) of 0.628 and a relative viability (NCI-H358; first compound 0.05 µM) of 0.494. For the same compound, the relative viability (NCI-H358; first compound 0.1581 µM) was 0.248, the relative viability (NCI-H358; first compound 0.5 µM) was 0.16 and the relative viability (NCI-H838; first compound 0.005 µM) was 1.07. For the same compound, the relative viability (NCI-H838; first compound 0.01581 µM) was 1.01, the relative viability (NCI-H838; first compound 0.05 µM) was 0.875 and the relative viability (NCI-H838; first compound 0.1581 µM) was 0.418. For the same compound, the relative viability (NCI-H838; first compound 0.5 µM) was 0.295, the relative viability (COR-L23; first compound 0.005 µM) was 0.787 and the relative viability (COR-L23; first compound 0.01581 µM) was 0.806. It also gave a relative viability (COR-L23; first compound 0.05 µM) of 0.552, a relative viability (COR-L23; first compound 0.1581 µM) of 0.159 and a relative viability (COR-L23; first compound 0.5 µM) of 0.122. The relative viability (NCI-H2126; first compound 0.005 µM) was 0.71, the relative viability (NCI-H2126; first compound 0.01581 µM) was 0.661 and the relative viability (NCI-H2126; first compound 0.05 µM) was 0.647. It also gave a relative viability (NCI-H2126; first compound 0.1581 µM) of 0.486, a relative viability (NCI-H2126; first compound 0.5 µM) of 0.474 and a relative viability (LC-2-ad; first compound 0.005 µM) of 0.851. The relative viability (LC-2-ad; first compound 0.01581 µM) was 0.79, the relative viability (LC-2-ad; first compound 0.05 µM) was 0.677 and the relative viability (LC-2-ad; first compound 0.1581 µM) was 0.442. The relative viability (LC-2-ad; first compound 0.5 µM) was 0.223, the relative viability (NCI-H1793; first compound 0.005 µM) was 0.941 and the relative viability (NCI-H1793; first compound 0.01581 µM) was 0.899. The relative viability (NCI-H1793; first compound 0.05 µM) was 0.89, the relative viability (NCI-H1793; first compound 0.1581 µM) was 0.732 and the relative viability (NCI-H1793; first compound 0.5 µM) was 0.391. For the same compound, the relative viability (HARA; first compound 0.005 µM) was 0.851, the relative viability (HARA; first compound 0.01581 µM) was 0.608 and the relative viability (HARA; first compound 0.05 µM) was 0.396. The relative viability (HARA; first compound 0.1581 µM) was 0.174, the relative viability (HARA; first compound 0.5 µM) was 0.0936 and the relative viability (NCI-H1993; first compound 0.005 µM) was 0.703. The relative viability (NCI-H1993; first compound 0.01581 µM) was 0.795, the relative viability (NCI-H1993; first compound 0.05 µM) was 0.672 and the relative viability (NCI-H1993; first compound 0.1581 µM) was 0.539. For the same compound, the relative viability (NCI-H1993; first compound 0.5 µM) was 0.471, the relative viability (NCI-H1395; first compound 0.005 µM) was 0.89 and the relative viability (NCI-H1395; first compound 0.01581 µM) was 0.709. It also gave a relative viability (NCI-H1395; first compound 0.05 µM) of 0.784, a relative viability (NCI-H1395; first compound 0.1581 µM) of 0.466 and a relative viability (NCI-H1395; first compound 0.5 µM) of 0.38. It also gave a relative viability (SK-LU-1; first compound 0.005 µM) of 0.954, a relative viability (SK-LU-1; first compound 0.01581 µM) of 0.918 and a relative viability (SK-LU-1; first compound 0.05 µM) of 0.922. For the same compound, the relative viability (SK-LU-1; first compound 0.1581 µM) was 0.476, the relative viability (SK-LU-1; first compound 0.5 µM) was 0.39 and the relative viability (HCC-15; first compound 0.005 µM) was 0.902. It also gave a relative viability (HCC-15; first compound 0.01581 µM) of 0.912, a relative viability (HCC-15; first compound 0.05 µM) of 0.903 and a relative viability (HCC-15; first compound 0.1581 µM) of 0.72. It also gave a relative viability (HCC-15; first compound 0.5 µM) of 0.585, a relative viability (NCI-H1944; first compound 0.005 µM) of 1.1 and a relative viability (NCI-H1944; first compound 0.01581 µM) of 0.492. It also gave a relative viability (NCI-H1944; first compound 0.05 µM) of 0.424, a relative viability (NCI-H1944; first compound 0.1581 µM) of 0.216 and a relative viability (NCI-H1944; first compound 0.5 µM) of 0.195. It also gave a relative viability (NCI-H2228; first compound 0.005 µM) of 0.675, a relative viability (NCI-H2228; first compound 0.01581 µM) of 0.546 and a relative viability (NCI-H2228; first compound 0.05 µM) of 0.492. The relative viability (NCI-H2228; first compound 0.1581 µM) was 0.152, the relative viability (NCI-H2228; first compound 0.5 µM) was 0.0885 and the relative viability (NCI-H23; first compound 0.005 µM) was 0.544. It also gave a relative viability (NCI-H23; first compound 0.01581 µM) of 0.417, a relative viability (NCI-H23; first compound 0.05 µM) of 0.294 and a relative viability (NCI-H23; first compound 0.1581 µM) of 0.157. For the same compound, the relative viability (NCI-H23; first compound 0.5 µM) was 0.14, the relative viability (NCI-H2023; first compound 0.005 µM) was 0.492 and the relative viability (NCI-H2023; first compound 0.01581 µM) was 0.302. For the same compound, the relative viability (NCI-H2023; first compound 0.05 µM) was 0.149, the relative viability (NCI-H2023; first compound 0.1581 µM) was 0.0967 and the relative viability (NCI-H2023; first compound 0.5 µM) was 0.0876. The relative viability (ABC-1; first compound 0.005 µM) was 0.699, the relative viability (ABC-1; first compound 0.01581 µM) was 0.99 and the relative viability (ABC-1; first compound 0.05 µM) was 0.909. It also gave a relative viability (ABC-1; first compound 0.1581 µM) of 0.71, a relative viability (ABC-1; first compound 0.5 µM) of 0.487 and a relative viability (HCC-366; first compound 0.005 µM) of 0.725. For the same compound, the relative viability (HCC-366; first compound 0.01581 µM) was 0.393, the relative viability (HCC-366; first compound 0.05 µM) was 0.178 and the relative viability (HCC-366; first compound 0.1581 µM) was 0.0468. It also gave a relative viability (HCC-366; first compound 0.5 µM) of 0.0253, a relative viability (NCI-H2405; first compound 0.005 µM) of 0.933 and a relative viability (NCI-H2405; first compound 0.01581 µM) of 0.714. For the same compound, the relative viability (NCI-H2405; first compound 0.05 µM) was 0.661, the relative viability (NCI-H2405; first compound 0.1581 µM) was 0.498 and the relative viability (NCI-H2405; first compound 0.5 µM) was 0.383. It also gave a relative viability (HOP-62; first compound 0.005 µM) of 0.781, a relative viability (HOP-62; first compound 0.01581 µM) of 0.666 and a relative viability (HOP-62; first compound 0.05 µM) of 0.257. For the same compound, the relative viability (HOP-62; first compound 0.1581 µM) was 0.124, the relative viability (HOP-62; first compound 0.5 µM) was 0.0827 and the relative viability (HCC-78; first compound 0.005 µM) was 0.538. The relative viability (HCC-78; first compound 0.01581 µM) was 0.457, the relative viability (HCC-78; first compound 0.05 µM) was 0.432 and the relative viability (HCC-78; first compound 0.1581 µM) was 0.275. The relative viability (HCC-78; first compound 0.5 µM) was 0.132, the relative viability (EMC-BAC-2; first compound 0.005 µM) was 0.695 and the relative viability (EMC-BAC-2; first compound 0.01581 µM) was 0.751. It also gave a relative viability (EMC-BAC-2; first compound 0.05 µM) of 0.688, a relative viability (EMC-BAC-2; first compound 0.1581 µM) of 0.295 and a relative viability (EMC-BAC-2; first compound 0.5 µM) of 0.247.
